Source: ChEMBL document CHEMBL1131390, “Inhibition of lipid peroxidation mediated by indolizines” (Bioorg Med Chem Lett, 1998)

organism: Rattus norvegicus; experiment: Compound was tested in vitro for inhibitory activity against lipid peroxidation after 30 minutes; format: functional; settings: 0.5 h

Compound | IC50 [µM]
COC(=O)Oc1c(-c2ccccc2)c(-c2ccccc2)n2ccc(C=O)cc12 | 2.6
COc1c(-c2ccccc2)c(-c2ccccc2)n2ccc(C=O)cc12 | 4.2
O=Cc1ccn2c(-c3ccccc3)c(-c3ccccc3)c(OC(=O)Nc3ccccc3)c2c1 | 3.2

Further lines, results first:

IC50 [µM] | Compound
2.5 | CC(=O)Oc1c(-c2ccccc2)c(-c2ccccc2)n2ccc(C(=O)c3ccccc3)cc12
3.5 | CC(=O)Oc1c(-c2ccccc2)c(-c2ccccc2)n2cc(C(C)=O)ccc12
3.1 | CC(=O)Oc1c(-c2ccccc2)c(-c2ccccc2)n2ncccc12
5.3 | CC(=O)Oc1c(-c2ccccc2)c(-c2ccccc2)n2ccc(C(C)=O)cc12
2.9 | CC(=O)Oc1c(-c2ccccc2)c(-c2ccccc2)n2ccc(C=O)cc12
11.8 | CC(=O)Oc1c(-c2ccccc2)c(-c2ccccc2)n2ccccc12

organism: Rattus norvegicus; experiment: Compound was tested in vitro for inhibitory activity against lipid peroxidation at concentration 100 uM; format: functional, organism-based; settings: not given

Compound | inhibition [%]
CCCCCCCCCCCCCCCC(=O)Oc1c(-c2ccccc2)c(-c2ccccc2)n2ccc(C=O)cc12 | 9
CC(=O)Oc1c(-c2ccccc2)c(-c2ccccc2)n2ncc3ccccc3c12 | 28
